IC50 data for 19 compounds are collected here from patent US20240034737A1, “Heterocyclic Derivatives as P2X7 Receptor Antagonists” (BREYE THERAPEUTICS APS, priority 2020, published 2024).

In general, IC50 refers to the point on the concentration scale where inhibition reaches its midpoint.

In one assay the target is P2X7 receptor (Homo sapiens (Human), UniProt Q99572). The assay is described as follows: Human P2X7 channel calcium-influx assay (Fluo-8 NW, FLIPR TETRA, Bz-ATP stimulation). As to conditions: HEK-293 cells stably transfected with P2X7 receptor, Low Divalent Cation Assay Buffer, read-out: hP2X7 IC50. It counts as cell-based. On the procedure: (§1) Extracellular binding of Bz-ATP to P2X7 receptor opens the channel and allows Ca^2+ influx into the cells. This Ca^2+ entry was measured in HEK-293 cells stably transfected with P2X7 receptor using Screen Quest™ Fluo-8 No Wash Calcium Assay Kit (AAt Bioquest®, cat. 36316). Once inside the cell, the lipophilic blocking groups of Fluo-8 are cleaved by non-specific cell esterases, resulting in a negatively-charged fluorescent dye that stays inside cells. Its fluorescence increases upon binding to calcium. When HEK-293/P2X7 cells are stimulated with Bz-ATP, Ca^2+ enters the cells and the fluorescence of Fluo-8 NW increases.
Sequence of P2X7 receptor (Q99572 whole entry): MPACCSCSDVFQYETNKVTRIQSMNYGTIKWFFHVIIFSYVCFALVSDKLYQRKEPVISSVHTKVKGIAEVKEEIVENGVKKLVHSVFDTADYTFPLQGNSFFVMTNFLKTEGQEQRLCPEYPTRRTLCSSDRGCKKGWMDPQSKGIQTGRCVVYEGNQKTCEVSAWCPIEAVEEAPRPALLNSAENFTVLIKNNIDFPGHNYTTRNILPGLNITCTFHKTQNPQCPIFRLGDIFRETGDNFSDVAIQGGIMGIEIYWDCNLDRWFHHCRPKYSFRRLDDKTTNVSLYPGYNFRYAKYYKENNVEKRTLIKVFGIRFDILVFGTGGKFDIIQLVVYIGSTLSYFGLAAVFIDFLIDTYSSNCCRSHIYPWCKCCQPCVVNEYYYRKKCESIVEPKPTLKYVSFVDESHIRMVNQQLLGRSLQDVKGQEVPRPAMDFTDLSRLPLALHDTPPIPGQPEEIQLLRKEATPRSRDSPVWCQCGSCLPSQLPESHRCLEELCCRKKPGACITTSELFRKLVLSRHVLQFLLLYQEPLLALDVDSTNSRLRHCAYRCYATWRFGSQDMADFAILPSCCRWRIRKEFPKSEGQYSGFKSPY
(§2) HEK-293 cells stably transfected with P2X7 receptor were seeded overnight in growth medium at 10,000 to 20,000 cells/well in 384-well plate. 24 hours later, the medium was removed, and the cells were pre-loaded at RT for 1 hour with 20 μL/w of Fluo-8 NW. Then 10 μL/w of test compounds and reference antagonist A438079 at 3X-concentration were injected with the […] and the kinetic response over a period of five minutes was monitored.

For another assay, the target named is mP2X7 (Mus musculus (Mouse), UniProt Q9Z1M0). The assay is described as follows: mP2X7 channel calcium-influx assay (Fluo-8 NW, FLIPR TETRA, Bz-ATP stimulation). In kind it is cell-based. The protocol: as §1, §2
Sequence of mP2X7 (Q9Z1M0 whole entry): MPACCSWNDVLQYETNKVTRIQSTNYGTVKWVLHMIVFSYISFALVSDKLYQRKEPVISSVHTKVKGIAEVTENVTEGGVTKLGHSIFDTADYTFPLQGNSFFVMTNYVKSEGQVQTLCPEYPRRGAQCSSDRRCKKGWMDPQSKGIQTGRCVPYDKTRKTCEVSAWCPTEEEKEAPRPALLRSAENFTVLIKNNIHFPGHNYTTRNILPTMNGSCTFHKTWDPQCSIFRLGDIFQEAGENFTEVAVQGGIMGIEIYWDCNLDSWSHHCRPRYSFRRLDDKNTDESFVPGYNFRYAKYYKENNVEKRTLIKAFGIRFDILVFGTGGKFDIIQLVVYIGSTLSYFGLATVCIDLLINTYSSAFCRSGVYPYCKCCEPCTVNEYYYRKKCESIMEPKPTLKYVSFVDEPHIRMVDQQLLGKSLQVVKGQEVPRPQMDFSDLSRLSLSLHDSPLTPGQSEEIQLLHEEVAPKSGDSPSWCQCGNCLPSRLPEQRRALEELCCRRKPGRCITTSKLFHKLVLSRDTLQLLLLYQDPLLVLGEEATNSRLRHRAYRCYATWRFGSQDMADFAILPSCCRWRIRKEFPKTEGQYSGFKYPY

Regarding `O=C(NCC(c1scnc1C(F)F)N1CCC(Oc2nnnn2-c2ccccc2)CC1)c1c(F)cccc1Cl` (centres unmarked) [Example 25, 2-Chloro-N-{2-[4-(difluoromethyl)-1,3-thiazol-5-yl]-2-{4-[(1-phenyl-1H-1,2,3,4-tetrazol-5-yl)oxy]piperidin-1-yl}ethyl}-6-fluorobenzamide], the IC50 was 57.7 nM on P2X7 receptor and 45.8 nM on mP2X7.
As for `O=C(NCC(c1scnc1C(F)F)N1CCC(COc2nccc(C(F)(F)F)n2)CC1)c1c(F)cccc1Cl` (centres unmarked) [Example 114, 2-Chloro-N-{2-[4-(difluoromethyl)-1,3-thiazol-5-yl]-2-[4-({[4-(trifluoromethyl)pyrimidin-2-yl]oxy}methyl)piperidin-1-yl]ethyl}-6-fluorobenzamide], the IC50 on P2X7 receptor is 50.7 nM; on mP2X7 it was 37.2 nM.
For `N#Cc1nccnc1OC1CCN(C(CNC(=O)c2c(F)cccc2Cl)c2scnc2C(F)F)CC1` (centres unmarked) [Example 17, 2-Chloro-N-(2-{4-[(3-cyanopyrazin-2-yl)oxy]piperidin-1-yl}-2-[4-(difluoromethyl)-1,3-thiazol-5-yl]ethyl)-6-fluorobenzamide], the IC50 at P2X7 receptor came out at 55 nM; on mP2X7, 320 nM.
With `O=C(NCC(c1scnc1C(F)F)N1CCC(Oc2nccs2)CC1)c1c(F)cccc1Cl` (centres unmarked) [Example 10, 2-chloro-N-{2-[4-(difluoromethyl)-1,3-thiazol-5-yl]-2-[4-(1,3-thiazol-2-yloxy)piperidin-1-yl]ethyl}-6-fluorobenzamide], the IC50 is 23.5 nM at P2X7 receptor and 191 nM at mP2X7.
As to `Cc1cnc(OCC2CCN(C(CNC(=O)c3c(F)cccc3Cl)c3scnc3C(F)F)CC2)nc1` (centres unmarked) [Example 100, 2-Chloro-N-{2-[4-(difluoromethyl)-1,3-thiazol-5-yl]-2-(4-{[(5-methylpyrimidin-2-yl)oxy]methyl}piperidin-1-yl)ethyl}-6-fluorobenzamide], the IC50 at P2X7 receptor worked out at 37.8 nM; at mP2X7 it was 66.7 nM.
In the case of `N#Cc1cncc(OC2CCN(C(CNC(=O)c3c(F)cccc3Cl)c3scnc3C(F)F)CC2)c1` (centres unmarked) [Example 16, 2-Chloro-N-(2-{4-[(5-cyanopyridin-3-yl)oxy]piperidin-1-yl}-2-[4-(difluoromethyl)-1,3-thiazol-5-yl]ethyl)-6-fluorobenzamide], the IC50 came out at 56.9 nM at P2X7 receptor and 68.3 nM at mP2X7.
Regarding `N#Cc1cccc(OC2CCN(C(CNC(=O)c3c(F)cccc3Cl)c3scnc3C(F)F)CC2)n1` (centres unmarked) [Example 37, 2-Chloro-N-(2-{4-[(6-cyanopyridin-2-yl)oxy]piperidin-1-yl}-2-[4-(difluoromethyl)-1,3-thiazol-5-yl]ethyl)-6-fluorobenzamide], the IC50 was determined as 28 nM at P2X7 receptor and 28.5 nM at mP2X7.
In the case of `Cc1c(F)ncnc1OCC1CCN(C(CNC(=O)c2c(F)cccc2Cl)c2scnc2C(F)F)CC1` (centres unmarked) [Example 113, 2-Chloro-N-{2-[4-(difluoromethyl)-1,3-thiazol-5-yl]-2-(4-{[(6-fluoro-5-methylpyrimidin-4-yl)oxy]methyl}piperidin-1-yl)ethyl}-6-fluorobenzamide], the figures for the IC50 on P2X7 receptor and on mP2X7 were 38.5 nM and 17.5 nM, respectively.
In the case of `Cn1ncc2c(OC3CCN(C(CNC(=O)c4c(F)cccc4Cl)c4scnc4C(F)F)CC3)ncnc21` (centres unmarked) [Example 51, 2-Chloro-N-{2-[4-(difluoromethyl)-1,3-thiazol-5-yl]-2-[4-({1-methyl-1H-pyrazolo[3,4-d]pyrimidin-4-yl}oxy)piperidin-1-yl]ethyl}-6-fluorobenzamide], the values for the IC50 at P2X7 receptor and at mP2X7 were 62.2 nM and 68.7 nM, respectively.
The corresponding values for `N#Cc1ncccc1OCC1CCN(C(CNC(=O)c2c(F)cccc2Cl)c2scnc2C(F)F)CC1` (centres unmarked) [Example 90, 2-Chloro-N-[2-(4-{[(2-cyanopyridin-3-yl)oxy]methyl}piperidin-1-yl)-2-[4-(difluoromethyl)-1,3-thiazol-5-yl]ethyl]-6-fluorobenzamide] are 20 nM and 25.7 nM.
As for `Cc1nnc2c(OC3CCN(C(CNC(=O)c4c(F)cccc4Cl)c4scnc4C(F)F)CC3)nccn12` (centres unmarked) [Example 52, 2-Chloro-N-{2-[4-(difluoromethyl)-1,3-thiazol-5-yl]-2-[4-({3-methyl-[1,2,4]triazolo[4,3-a]pyrazin-8-yl}oxy)piperidin-1-yl]ethyl}-6-fluorobenzamide], the values for the IC50 at P2X7 receptor and on mP2X7 were 274 nM and 571 nM, respectively.
Take `O=C(NCC(c1scnc1C(F)F)N1CCC(COc2nccs2)CC1)c1c(F)cccc1Cl` (centres unmarked) [Example 82, 2-chloro-N-{2-[4-(difluoromethyl)-1,3-thiazol-5-yl]-2-{4-[(1,3-thiazol-2-yloxy)methyl]piperidin-1-yl}ethyl}-6-fluorobenzamide]: the IC50 on P2X7 receptor amounted to 15.2 nM; on mP2X7, 41.9 nM.
The corresponding values for `N#Cc1nccnc1OCC1CCN(C(CNC(=O)c2c(F)cccc2Cl)c2scnc2C(F)F)CC1` (centres unmarked) [Example 92, 2-Chloro-N-[2-(4-{[(3-cyanopyrazin-2-yl)oxy]methyl}piperidin-1-yl)-2-[4-(difluoromethyl)-1,3-thiazol-5-yl]ethyl]-6-fluorobenzamide] are 22.5 nM and 33.5 nM.
`O=C(NCC(c1scnc1C(F)F)N1CCC(Oc2nc3ccccc3o2)CC1)c1c(F)cccc1Cl` (centres unmarked) [Example 22, N-{2-[4-(1,3-Benzoxazol-2-yloxy)piperidin-1-yl]-2-[4-(difluoromethyl)-1,3-thiazol-5-yl]ethyl}-2-chloro-6-fluorobenzamide]: the IC50 at P2X7 receptor is 20.5 nM; at mP2X7 it was 12.3 nM.
As to `O=C(NCC(c1scnc1C(F)F)N1CCC(COc2cncc3nncn23)CC1)c1c(F)cccc1Cl` (centres unmarked) [Example 118, 2-Chloro-N-{2-[4-(difluoromethyl)-1,3-thiazol-5-yl]-2-[4-({[1,2,4]triazolo[4,3-a]pyrazin-5-yloxy}methyl)piperidin-1-yl]ethyl}-6-fluorobenzamide], the IC50 turned out to be 214 nM on P2X7 receptor and 256 nM on mP2X7.
On to `O=C(NCC(c1scnc1C(F)F)N1CCC(COc2ncccc2Cl)CC1)c1c(F)cccc1Cl` (centres unmarked) [Example 120, 2-Chloro-N-[2-(4-{[(3-chloropyridin-2-yl)oxy]methyl}piperidin-1-yl)-2-[4-(difluoromethyl)-1,3-thiazol-5-yl]ethyl]-6-fluorobenzamide], for which the IC50 at P2X7 receptor was 32.5 nM; at mP2X7, 16.4 nM.
As to `O=C(NCC(c1scnc1C(F)F)N1CCC(Oc2nccc(C(F)(F)F)n2)CC1)c1c(F)cccc1Cl` (centres unmarked) [Example 42, 2-Chloro-N-{2-[4-(difluoromethyl)-1,3-thiazol-5-yl]-2-(4-{[4-(trifluoromethyl)pyrimidin-2-yl]oxy}piperidin-1-yl)ethyl}-6-fluorobenzamide], the IC50 on P2X7 receptor was 60.8 nM; at mP2X7, 108 nM.
In the case of `O=C(NCC(c1scnc1C(F)F)N1CCC(Oc2ccnc(F)n2)CC1)c1c(F)cccc1Cl` (centres unmarked) [Example 35, 2-Chloro-N-{2-[4-(difluoromethyl)-1,3-thiazol-5-yl]-2-{4-[(2-fluoropyrimidin-4-yl)oxy]piperidin-1-yl}ethyl}-6-fluorobenzamide], the results for the IC50 at P2X7 receptor and on mP2X7 were 71.1 nM and 190 nM, respectively.
On to `N#Cc1ccncc1OC1CCN(C(CNC(=O)c2c(F)cccc2Cl)c2scnc2C(F)F)CC1` (centres unmarked) [Example 38, 2-Chloro-N-(2-{4-[(4-cyanopyridin-3-yl)oxy]piperidin-1-yl}-2-[4-(difluoromethyl)-1,3-thiazol-5-yl]ethyl)-6-fluorobenzamide], for which the 50% inhibitory concentration (IC50) is 57.5 nM on P2X7 receptor and 79.6 nM on mP2X7.
